Assays:
[1] = tested on: chronic constriction injury (CCI) model of neuropathic pain; assay: 2-month chronic constriction injury (CCI) model: mechanical threshold and thermal paw withdrawal latency; assay type: in vivo; conditions: compared with the fluocinolone implants
Protocol: A 2-month chronic constriction injury (CCI) model of neuropathic pain was used to evaluate different formulations of a corticosteroid, fluocinolone, encapsulated in bioerodable polymers compared to fluocinolone given subcutaneously (SC). Different formulations as provided in Table B below were evaluated for reducing pain-associated behaviors: Thermal paw withdrawal latency was evaluated at baseline 7, 14, 21, 28, 35, 42, 49, and 56 days post-operatively, while mechanical threshold was evaluated at 8, 15, 22, 29, 36, 43, 50, and 57 days post-operatively.
There were seven groups of animals tested. […]
Mechanical allodynia was measured using von Frey monofilaments (Stoelting, Wood Dale, Ill.) with varying stiffness (2.0-15.0 g) on Days 1, 8, 15, 22, 29, 36, 43, 50 and 57 as described previously (see FIGS. 5-6). […] The 50% paw withdrawal threshold response was determined by a sequential increasing and/or decreasing of the stimulus strength (the “up-down method” of Dixon). […] The 50% paw withdrawal threshold was calculated using the formula: 10 (Xf+kd)/10,000, where Xf is the final von Frey filament used (log units), k is a value that analyzes the response pattern (taken from the table published by Chaplan et al.), and d is the mean difference between stimuli (log units). The mean and standard error of the mean (SEM) were determined for each treatment group.

[2] = tested on: inflammatory response; assay: Implant-site observation: resorption of foreign material and encapsulation (FIGS. 9 and 10); assay type: in vivo; conditions: picture
From the text: FIG. 10 is a picture of fluocinolone implants 20 wt % 85/15 PLGA+10% mPEG and 1% wt fluocinolone 100 DL 7E+5% PEG/7% 50/50 PLGA 7A. The foreign and inflammatory material was not resorbed due to lack of inflammatory response mediated by fluocinolone implants.

In the case of CC1=C(CC(=O)O)c2cc(F)ccc2/C1=C\c1ccc([S+](C)[O-])cc1 (stereo not drawn) [sulindac], the pain control response [1] is reported as “very similar pain control response”, the encapsulation of implant [2] is reported as “did not prevent encapsulation” and the “resorption of foreign and inflammatory material (sutures)” value [2] is reported as “resorbed”.

— patent US9763966B2, “Fluocinolone formulations in a biodegradable polymer carrier” (Warsaw Orthopedic, Inc., priority 2008, dated 2017)
